Assay results reported in patent publication US11642332B2, “(2R,4R)-5-(5′-chloro-2′-fluorobiphenyl-4-yl)-2-hydroxy-4-[(5-methyloxazole-2-carbonyl)amino]pentanoic acid” (THERAVANCE BIOPHARMA R&D IP, LLC, priority 2015, dated 2023).
Read-outs that look alike come from different tables or passages of the source.

What was measured:
[1] = Renal excretion of Compound 1 in dog; format: in vivo, male beagle dogs; details: for Urinary Excretion (approximate % of administered dose excreted in urine) Mean: 0-24 hrs
Protocol: An important factor for insuring appropriate long term drug dosing and correct steady-state drug concentrations in patients is drug clearance. In general, decreased drug clearance results in higher drug concentrations and greater drug effects. In order to understand renal clearance of Compound 1, the percent of administered dose recovered in urine following a single IV dose was assessed in three animal species. Three separate studies in male Sprague Dawley rats, male beagle dogs and male cynomolgus monkeys, respectively, were conducted and the procedure and experimental results are described below.
Male beagle dogs (N=6, two groups of 3), having body weights of 9.04-10.2 kg and 10.8-11.5 kg, received an IV dose of Compound 1 at 0.1 mg/kg (Group I) and 1.255 mg/kg (Group II) as part of a dosing cassette. Compound 1 was dissolved in PEG-200:ethanol:water (40:10:50) and filtered through a […] polyvinyl difluoride (PVDF) syringe filter prior to administration. The dogs had access to food ad libitum before and after administration of Compound 1. Urine samples were collected on cold packs into pre-weighed containers that were prefilled with 0.5 mL glacial acetic acid. The samples were weighed again and additional glacial acetic acid was added if needed to a final concentration of 2%. The samples were frozen and stored (−80° C.) prior to bioanalysis.
Dog urine concentrations of Compound 1 were determined by LC/MS/MS. Urine study samples (diluted in plasma K2EDTA(1:9)) were vortexed and 25 μL was placed in a 96-well plate. The samples were extracted with 100 μL in acetonitrile with internal standard Glyburide. The extract was centrifuged for 5 minutes at 3100 RPM and 75 μL of supernatant was transferred and mixed with 150 μL water. Samples (12 μL) were injected on a Waters Acquity UPLC BEH C18 (50×2.1 mm, 1.7 μm) column with a flow rate of 0.9 mL/min. Mobile phase A consisted of 95:5:0.1 (v:v:v) water:acetonitrile:formic acid and mobile phase B consisted of 50:50:0.1 (v:v:v) methanol:acetonitrile:formic acid. The gradient elution started with 35% to 90% B from 0.2 to 1.6 min, held at 95% from 1.7 to 2.2 min., followed by a step of 95% to 35% B from 2.20 to 2.30 min. Compound 1 assay range was 0.000100 to 1.00 μg/mL.
The mean amount of urine excreted over a collection period of 24 hrs and the approximate % of administered dose excreted in urine is reported in the table below.

[2] = IV/PO pharmacokinetic study in dogs; format: in vivo, male beagle dogs; parameters: AUC(0-t): concentration or dose not given beside the values; details: dog; for AUC(0-t): read-out: AUClast Mean
Protocol: Each rat or dog PK study began with formulation of the test compound. Appropriate masses of each test compound were added into a volume of vehicle (e.g. 5% sodium bicarbonate, 5% dextrose in H2O) such that the final concentration of each compound was appropriate to be dosed at 2 mL/kg. Although a homogenous suspension were acceptable for oral dosing, intravenous dosing solutions were sterile-filtered (0.2 μm) prior to dosing to ensure no particulates were administered.
In the dog study, male beagle dogs (3 per route) housed at Agilux Laboratories (Worcester, Mass.) and weighing between 7-12 kg received either a single oral gavage or a single intravenous (via indwelling catheter) dose of the dosing solution. The final dose was typically 0.1-2 mg/kg. Serial blood samples were harvested via direct venipuncture at 3 minutes, 15 minutes, 30 minutes, 1 hour, 2 hours, 4 hours, 6 hours, 8 hours, 12 hours, and 24 hours post-dose. All samples were collected manually into microtainer tubes containing EDTA as the anticoagulant and were processed to plasma by refrigerated centrifugation.
Plasma samples were extracted with 3 volumes of MeCN containing a suitable internal standard. Extracts were reconstituted into 3 volumes of water containing 1% formic acid, and analyzed via HPLC-coupled MS/MS. Plasma concentration-time data were analyzed using the Phoenix software (Pharsight Corp., St. Louis, Mo.) to calculate pharmacokinetic parameters.
Plasma clearance was determined from the intravenous arm of the study, and represents the rate at which plasma is cleared of drug. It is equal to the dose divided by the area under the plasma concentration-time curve. In addition to plasma clearance, it is also essential for an orally administered drug to reach efficacious systemic levels following oral delivery. Oral bioavailability is a measurement of plasma exposures following oral administration relative to exposures following intravenous administration.

[3] = molecular target: T1, human neprilysin (EC 3.4.24.11; NEP) (Homo sapiens, UniProt P08473); assay: In vitro assay for the quantitation of inhibitor potency at human NEP; format: biochemical; details: recombinant human NEP, fluorogenic peptide substrate 10 μM, 37° C.; read-out: pKi at human NEP (converted)
T1 construct: purchased R&D Systems 1182-ZN
T1 sequence (P08473 52-750 limits assumed): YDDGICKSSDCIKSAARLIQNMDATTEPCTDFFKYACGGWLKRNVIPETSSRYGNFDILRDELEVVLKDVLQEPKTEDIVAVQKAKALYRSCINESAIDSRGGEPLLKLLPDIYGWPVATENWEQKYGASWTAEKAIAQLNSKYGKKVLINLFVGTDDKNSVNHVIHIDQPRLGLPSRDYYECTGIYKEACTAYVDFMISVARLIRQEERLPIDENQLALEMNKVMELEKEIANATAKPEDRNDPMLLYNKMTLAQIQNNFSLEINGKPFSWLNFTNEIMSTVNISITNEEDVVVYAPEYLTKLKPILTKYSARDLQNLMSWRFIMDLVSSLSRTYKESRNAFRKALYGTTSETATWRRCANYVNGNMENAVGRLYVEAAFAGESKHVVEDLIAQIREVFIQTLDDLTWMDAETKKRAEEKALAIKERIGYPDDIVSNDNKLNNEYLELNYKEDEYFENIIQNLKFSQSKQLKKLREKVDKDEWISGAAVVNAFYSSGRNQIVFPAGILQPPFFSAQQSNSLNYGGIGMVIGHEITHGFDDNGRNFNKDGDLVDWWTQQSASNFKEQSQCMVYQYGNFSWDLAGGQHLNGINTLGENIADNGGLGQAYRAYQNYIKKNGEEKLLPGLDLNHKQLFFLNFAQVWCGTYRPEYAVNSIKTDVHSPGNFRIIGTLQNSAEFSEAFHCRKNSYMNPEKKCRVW
Protocol: The inhibitory activity at human neprilysin (EC 3.4.24.11; NEP) was determined as follows.
Recombinant human NEP was obtained commercially (R&D Systems, Minneapolis, Minn., catalog number 1182-ZN). The fluorogenic peptide substrate Mca-D-Arg-Arg-Leu-Dap-(Dnp)-OH (Medeiros et al. (1997) Braz. J. Med. Biol. Res. 30:1157-62; Anaspec, San Jose, Calif.) was used.
The assay was performed in 384-well white opaque plates at 37° C. using the fluorogenic peptide substrate at a concentration of 10 μM in Assay Buffer (50 mM HEPES, pH 7.5, 100 mM NaCl, 0.01% polyethylene glycol sorbitan monolaurate (Tween-20), 10 μM ZnSO4).
Test compounds were assayed over the range of concentrations from 10 μM to 20 pM. Test compounds were added to the enzyme and incubated for 30 minute at 37° C. prior to initiating the reaction by the addition of substrate. Reactions were terminated after 20 minutes of incubation at 37° C. by the addition of glacial acetic acid to a final concentration of 3.6% (v/v).
Plates were read on a fluorometer with excitation and emission wavelengths set to […]. Inhibition constants were obtained by nonlinear regression of the data using the equation (GraphPad Software, Inc., San Diego, Calif.): v=v0/[1+(I/K′)] where v is the reaction rate, v0 is the uninhibited reaction rate, I is the inhibitor concentration and K′ is the apparent inhibition constant.
The compounds were tested in this assay and found to have pKi values at human NEP as follows.

SMILES: Cc1cnc(C(=O)N[C@H](Cc2ccc(-c3cc(Cl)ccc3F)cc2)C[C@@H](O)C(=O)O)o1 [Compound 1, (2R,4R)-5-(5′-Chloro-2′-fluorobiphenyl-4-yl)-2-hydroxy-4-[(5-methyloxazole-2-carbonyl)amino]pentanoic Acid]
- Amount of Compound 1 Excreted in Urine over Collection Period (0-24 hrs) Mean ([1]; IV 0.1 mg/kg): 15.8 µg
- Urinary Excretion (approximate % of administered dose excreted in urine) Mean ([1]; IV 0.1 mg/kg): 0.92%
- Amount of Compound 1 Excreted in Urine over Collection Period (0-24 hrs) Mean ([1]; IV 1.26 mg/kg): 103 µg
- Urinary Excretion (approximate % of administered dose excreted in urine) Mean ([1]; IV 1.26 mg/kg): 1.67%
- CLlast Mean ([2]; IV): 0.29 L/h/kg
- AUC(0-t) ([2]; male, beagle, plasma, IV): 510 ng·h/mL
- bioavailability ([2]; male, beagle, plasma, PO vs IV AUClast): > 100%
- AUC(0-t) ([2]; male, beagle, plasma, PO): 530 ng·h/mL
- Ki [3]: 0.2 nM
